Test results as given in US10905680B2, “Methods of treatment for cholestatic and fibrotic diseases” (Genfit, priority 2016, dated 2021).
pIC50: −log10 of the molar value.

Assays:
[1] = system: human primary hepatic stellate cells (hHSC); assay: TGFβ1-induced expression of α-SMA protein in human HSC (ELISA); format: cell-based; settings: TGFβ1 1 ng/ml, 48 hours
Protocol: Serum-deprived HSC were preincubated for 1 hour with NTZ (A) or TZ (B) before the activation with the profibrogenic cytokine TGFβ1 (1 ng/ml). After 48 hours of incubation, the expression of α-SMA was measured by ELISA. The obtained values were transformed into percentage inhibition over TGFβ1 control. Data are presented as mean (triplicates)±standard deviation (SD). Statistical analyses were performed by one-way ANOVA followed by Bonferroni post-hoc tests, using Sigma Plot 11.0 software. [*: p<0.05; **: p<0.01; ***: p<0.001 (comparison versus TGFβ1 1 ng/mL group)]. The curve fitting and the calculation of half maximal inhibitory concentration (IC50) were performed with XLFit software 5.3.1.3. The human primary hepatic stellate cells (hHSC) (Innoprot) were cultured in STeCM medium (ScienCell cat #5301) that was supplemented with 2% fetal bovine serum (FBS, ScienCell cat #0010), 1% penicillin/streptomycin (ScienCell cat #0503) and stellate cell growth supplement (SteCGS; ScienCell cat #5352). Cell culture flasks were coated with Poly-L Lysine (Sigma cat # P4707) for a better adherence. The human primary hepatic stellate cells (hHSC) (Innoprot) were cultured under standard conditions, as described above. The cells were subsequently plated at a density of 7×10^4 cells/well into 24-well plates for gene expression studies, and at a density of 2×10^4 cells/well into 96-well plates for the measure of α-SMA by ELISA. The next day, cell culture medium was removed, and cells were washed with PBS (Invitrogen cat #14190). hHSC were deprived for 24 hours in serum-free and SteCGS-free medium. For the treatments with NTZ or TZ, the serum-deprived hHSC were preincubated for 1 hour with the compounds followed by the addition of the profibrogenic stimuli TGFβ1 (PeproTech cat #100-21, 1 ng/mL) in serum-free and SteCGS-free medium for an additional 24 or 48 hour period (the timepoint is indicated in the figure legends). […] The level of α-SMA was measured using a Sandwich ELISA. […]

HSC = assay: Toxicity assays in HSC; format: cell-based, human; settings: data not shown
[2] = system: Normal Human Dermal Fibroblasts (NHDF); assay: ACTA2 transcripts in TGFβ1-induced normal human dermal fibroblasts (RT-qPCR); format: cell-based; settings: TGFβ1 10 ng/ml, 24 hours
Protocol: Serum-deprived normal human dermal fibroblasts (NHDF) were preincubated for 1 hour with NTZ (A) or TZ (B) before the activation with TGFβ1 (10 ng/ml). After 24 hours of incubation, the expression of ACTA2 was measured by RT-qPCR. The expression values were then transformed as fold induction over TGFβ1 control. Data are presented as mean (triplicates)±SEM (Standard Error of Mean). Statistical analyses were performed by a student's t-test (for TGFβ-stimulated vs unstimulated conditions); [#: p<0.05; ## p<0.01; ### p<0.001] or by aone-way ANOVA followed by Bonferroni post-hoc tests (for compound-treated samples vs TGFβ1 control). [*: p<0.05; **: p<0.01; ***: p<0.001], using GraphPad Prism 7.04 software.
Normal Human Dermal Fibroblasts (NHDF) (Lonza) were cultured in Fibroblast Basal Medium (FBM) (Lonza cat # CC-3131) supplemented with FGM-2 SingleQuots™ Kit (Lonza cat # CC-3132) and 2% FBS. […]
Quantitative PCR was then carried out using the MyiQ Single-Color Real-Time PCR Detection System (Biorad). […]
For each gene, the standard curves were drawn by selecting the best points (at least three points) in order to have PCR reaction efficiency close to 100% and a correlation coefficient close to 1. Expression levels were determined using the standard curve equation for both the housekeeping gene and the target gene (taking into account the specific PCR efficiency of each target gene).

pIC50 ([1]; Homo sapiens, 1 h preincubation, read-out: IC50 (level of α-SMA in TGFβ-induced HSCs)): 5.52 to 7.00
SMILES: O=C(Nc1ncc([N+](=O)[O-])s1)c1ccccc1O [TZ, 2-hydroxy-N-(5-nitro-2-thiazolyl)benzamide]
level of α-SMA in TGFβ-induced HSCs [1]: profile similar to the parent drug | toxicity or apoptosis of HSC (HSC): not due to toxicity or apoptosis | antifibrotic effects (ACTA2 transcripts) in TGFβ-activated normal human dermal fibroblasts [2]: significant and dose-dependent antifibrotic effects
